Source: patent US6737383B1, “Herbicidal oxadiazolidines” (priority 1999, dated 2004)

Key:
[1] = test system: bedstraw; assay: Test B pre/postemergence bedstraw; assay type: in vivo, Galium aparine
Summary of the method: (§1)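 Test chemicals in a non-phytotoxic solvent mixture with surfactant were sprayed preemergence onto planted seeds and postemergence onto plants 2 to 18 cm tall (1- to 4-leaf stage). After twelve to sixteen days in a greenhouse, injury was visually rated against untreated controls from 0 (no effect) to 10 (complete control).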

[2] = test system: blackgrass; assay: Test B pre/postemergence blackgrass; assay type: in vivo, Alopecurus myosuroides
Summary of the method: as §1

[3] = test system: surinam grass; assay: Test B pre/postemergence surinam grass; assay type: in vivo, Brachiaria decumbens
Summary of the method: as §1

[4] = test system: corn; assay: Test B pre/postemergence corn; assay type: in vivo, Zea mays
Summary of the method: as §1

[5] = test system: crabgrass; assay: Test B pre/postemergence crabgrass; assay type: in vivo, Digitaria sanguinalis
Summary of the method: as §1

[6] = test system: giant foxtail; assay: Test B pre/postemergence giant foxtail; assay type: in vivo, Setaria faberii
Summary of the method: as §1

[7] = test system: morningglory; assay: Test B pre/postemergence morningglory; assay type: in vivo, Ipomoea hederacea
Summary of the method: as §1

[8] = test system: pigweed; assay: Test B pre/postemergence pigweed; assay type: in vivo, Amaranthus retroflexus
Summary of the method: as §1

[9] = test system: rape; assay: Test B pre/postemergence rape; assay type: in vivo, Brassica napus
Summary of the method: as §1

[10] = test system: sugar beet; assay: Test B pre/postemergence sugar beet; assay type: in vivo, Beta vulgaris
Summary of the method: as §1

[11] = test system: wheat; assay: Test B pre/postemergence wheat; assay type: in vivo, Triticum aestivum
Summary of the method: as §1

[12] = test system: wild oat; assay: Test B pre/postemergence wild oat; assay type: in vivo, Avena fatua
Summary of the method: as §1

[13] = test system: purple nutsedge; assay: Test B pre/postemergence purple nutsedge; assay type: in vivo, Cyperus rotundus
Summary of the method: as §1

[14] = test system: rice; assay: Test B flood test rice; assay type: in vivo, Oryza sativa
Summary of the method: (§2)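 Flood test on plants grown to the 2-leaf stage; treated plants kept in greenhouse twelve to sixteen days, then visually rated against controls on a 0 (no effect) to 10 (complete control) scale.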

[15] = test system: smallflower flatsedge; assay: Test B flood test smallflower flatsedge; assay type: in vivo, Cyperus difformis
Summary of the method: as §2

[16] = test system: bamyardgrass; assay: Test B flood test barnyardgrass; assay type: in vivo, Echinochloa crus-galli
Summary of the method: as §2

[17] = Preemergence, Rate 62 g/ha, scale of 0 to 10 where 0 is no effect and 10 is complete control
[18] = Preemergence, Rate 250 g/ha, scale of 0 to 10 where 0 is no effect and 10 is complete control
[19] = Preemergence, Rate 500 g/ha, scale of 0 to 10 where 0 is no effect and 10 is complete control
[20] = Rate 62 g/ha, Postemergence, scale of 0 to 10 where 0 is no effect and 10 is complete control
[21] = Rate 125 g/ha, Postemergence, scale 0 to 10
[22] = Rate 125 g/ha, Preemergence, scale of 0 to 10 where 0 is no effect and 10 is complete control
[23] = Rate 500 g/ha, Postemergence, scale 0 to 10, 0 no effect, 10 complete control
[24] = Rate 62 g/ha, headed Pre-emergence (flood test species), scale 0 to 10 (0 no effect, 10 complete control)
[25] = Rate 125 g/ha, Pre-emergence, flood test species, scale 0 to 10 where 0 is no effect and 10 is complete control
[26] = Rate 250 g/ha, Pre-emergence, flood-test species, scale 0 to 10, 0 is no effect, 10 is complete control
[27] = Rate 500 g/ha, Pre-emergence, flood test species, scale 0 to 10 (0 no effect, 10 complete control)

For `Cc1nc(C)c(Cn2c(=O)on(C(=O)N(c3ccc(F)cc3)C(C)C)c2=O)s1` [Compound 232], the “Bedstraw plant response rating” value [1, 17] was 0, the “Bedstraw plant response rating” value [1, 18] was 0 and the “Plant response rating, Bedstraw” value [1, 19] was 0. For the same compound, the “Bedstraw plant response rating” value [1, 20] was 0, the “Bedstraw plant response rating” value [1, 21] was 0 and the “Bedstraw plant response rating” value [1, 22] was 0. For the same compound, the “Plant response rating (0 to 10; 0 is no effect, 10 is complete control), Bedstraw” value ([1]; Rate 250 g/ha, Postemergence) was 2, the “Bedstraw plant response rating” value [1, 23] was 2 and the “Blackgrass plant response rating” value [2, 17] was 2. For the same compound, the “Blackgrass plant response rating” value [2, 18] was 8, the “Plant response rating, Blackgrass” value [2, 19] was 8 and the “Blackgrass plant response rating” value [2, 20] was 0. For the same compound, the “Blackgrass plant response rating” value [2, 21] was 2, the “Blackgrass plant response rating” value [2, 22] was 6 and the “Plant response rating (0 to 10; 0 is no effect, 10 is complete control), Blackgrass” value ([2]; Rate 250 g/ha, Postemergence) was 6. For the same compound, the “Blackgrass plant response rating” value [2, 23] was 7, the “B. signalgrass plant response rating” value [3, 17] was 0 and the “B. signalgrass plant response rating” value ([3]; Preemergence, Rate 250 g/ha, scale 0 to 10, 0 is no effect, 10 is complete control) was 1. For the same compound, the “Plant response rating, B. signalgrass” value [3, 19] was 5, the “B. signalgrass plant response rating” value [3, 20] was 0 and the “B. signalgrass plant response rating” value ([3]; Rate 125 g/ha, Postemergence, scale 0 (no effect) to 10 (complete control)) was 0. The “B. signalgrass plant response rating” value [3, 22] was 0, the “Plant response rating (0 to 10; 0 is no effect, 10 is complete control), B. signalgrass” value ([3]; Rate 250 g/ha, Postemergence) was 1 and the “B. signalgrass plant response rating” value [3, 23] was 8. The “Corn plant response rating” value [4, 17] was 0, the “Corn plant response rating” value [4, 18] was 0 and the “Plant response rating, Corn” value [4, 19] was 0. The “Corn plant response rating” value [4, 20] was 0, the “Corn plant response rating” value [4, 21] was 0 and the “Corn plant response rating” value [4, 22] was 0. For the same compound, the “Plant response rating (0 to 10; 0 is no effect, 10 is complete control), Corn” value ([4]; Rate 250 g/ha, Postemergence) was 0, the “Corn plant response rating” value [4, 23] was 0 and the “Crabgrass plant response rating” value [5, 17] was 5. For the same compound, the “Crabgrass plant response rating” value [5, 18] was 9, the “Plant response rating, Crabgrass” value [5, 19] was 10 and the “Crabgrass plant response rating” value [5, 20] was 0. The “Crabgrass plant response rating” value [5, 21] was 1, the “Crabgrass plant response rating” value [5, 22] was 7 and the “Plant response rating (0 to 10; 0 is no effect, 10 is complete control), Crabgrass” value ([5]; Rate 250 g/ha, Postemergence) was 1. For the same compound, the “Crabgrass plant response rating” value [5, 23] was 2, the “Giant foxtail plant response rating” value [6, 17] was 6 and the “Giant foxtail plant response rating” value [6, 18] was 8. For the same compound, the “Plant response rating, Giant foxtail” value [6, 19] was 9, the “Giant foxtail plant response rating” value [6, 20] was 0 and the “Giant foxtail plant response rating” value [6, 21] was 0. The “Giant foxtail plant response rating” value [6, 22] was 8, the “Plant response rating (0 to 10; 0 is no effect, 10 is complete control), Giant foxtail” value ([6]; Rate 250 g/ha, Postemergence) was 2 and the “Giant foxtail plant response rating” value [6, 23] was 3. The “Morningglory plant response rating” value [7, 17] was 0, the “Morningglory plant response rating” value [7, 18] was 0 and the “Plant response rating, Morningglory” value [7, 19] was 0. The “Morningglory plant response rating” value [7, 20] was 3, the “Morningglory plant response rating” value [7, 21] was 8 and the “Morningglory plant response rating” value [7, 22] was 0. The “Plant response rating (0 to 10; 0 is no effect, 10 is complete control), Morningglory” value ([7]; Rate 250 g/ha, Postemergence) was 8, the “Morningglory plant response rating” value [7, 23] was 8 and the “Redroot pigweed plant response rating” value [8, 17] was 0. The “Redroot pigweed plant response rating” value [8, 18] was 5, the “Plant response rating, Redroot pigweed” value [8, 19] was 7 and the “Redroot pigweed plant response rating” value [8, 20] was 2. For the same compound, the “Redroot pigweed plant response rating” value [8, 21] was 3, the “Redroot pigweed plant response rating” value [8, 22] was 0 and the “Plant response rating (0 to 10; 0 is no effect, 10 is complete control), Redroot pigweed” value ([8]; Rate 250 g/ha, Postemergence) was 6. For the same compound, the “Redroot pigweed plant response rating” value [8, 23] was 4, the “Rape plant response rating” value [9, 17] was 0 and the “Rape plant response rating” value [9, 18] was 0. The “Plant response rating, Rape” value [9, 19] was 0, the “Rape plant response rating” value [9, 20] was 0 and the “Rape plant response rating” value [9, 21] was 2. For the same compound, the “Rape plant response rating” value [9, 22] was 0, the “Plant response rating (0 to 10; 0 is no effect, 10 is complete control), Rape” value ([9]; Rate 250 g/ha, Postemergence) was 2 and the “Rape plant response rating” value [9, 23] was 2. For the same compound, the “Sugarbeets plant response rating” value [10, 17] was 0, the “Sugarbeets plant response rating” value [10, 18] was 4 and the “Plant response rating, Sugarbeets” value [10, 19] was 4. The “Sugarbeets plant response rating” value [10, 20] was 0, the “Sugarbeets plant response rating” value [10, 21] was 2 and the “Sugarbeets plant response rating” value [10, 22] was 0. The “Plant response rating (0 to 10; 0 is no effect, 10 is complete control), Sugarbeets” value ([10]; Rate 250 g/ha, Postemergence) was 2, the “Sugarbeets plant response rating” value [10, 23] was 3 and the “Wheat plant response rating” value [11, 17] was 0. For the same compound, the “Wheat plant response rating” value [11, 18] was 0, the “Plant response rating, Wheat” value [11, 19] was 0 and the “Wheat plant response rating” value [11, 20] was 0. For the same compound, the “Wheat plant response rating” value [11, 21] was 0, the “Wheat plant response rating” value [11, 22] was 0 and the “Plant response rating (0 to 10; 0 is no effect, 10 is complete control), Wheat” value ([11]; Rate 250 g/ha, Postemergence) was 0. The “Wheat plant response rating” value [11, 23] was 0, the “Wild oats plant response rating” value [12, 17] was 0 and the “Wild oats plant response rating” value [12, 18] was 3. For the same compound, the “Plant response rating, Wild oats” value [12, 19] was 8, the “Wild oats plant response rating” value [12, 20] was 0 and the “Wild oats plant response rating” value [12, 21] was 0. The “Wild oats plant response rating” value [12, 22] was 0, the “Plant response rating (0 to 10; 0 is no effect, 10 is complete control), Wild oats” value ([12]; Rate 250 g/ha, Postemergence) was 0 and the “Wild oats plant response rating” value [12, 23] was 0. For the same compound, the “Nutsedge plant response rating” value [13, 17] was 0, the “Nutsedge plant response rating” value [13, 20] was 0 and the “Nutsedge plant response rating” value [13, 21] was 0. For the same compound, the “Nutsedge plant response rating” value [13, 22] was 0, the “Plant response rating (0 to 10; 0 is no effect, 10 is complete control), Nutsedge” value ([13]; Rate 250 g/ha, Postemergence) was 0 and the “Nutsedge plant response rating” value [13, 23] was 0. The “Rice plant response rating” value [14, 24] was 0, the “Rice plant response rating” value [14, 25] was 0 and the “Rice plant response rating” value [14, 26] was 0. The “Rice plant response rating” value [14, 27] was 0, the “S. Flatsedge plant response rating” value [15, 24] was 0 and the “S. Flatsedge plant response rating” value [15, 25] was 0. The “S. Flatsedge plant response rating” value [15, 26] was 0, the “S. Flatsedge plant response rating” value [15, 27] was 0 and the “Barnyardgrass plant response rating” value [16, 24] was 0. For the same compound, the “Barnyardgrass plant response rating” value [16, 25] was 0, the “Barnyardgrass plant response rating” value [16, 26] was 0 and the “Barnyardgrass plant response rating” value [16, 27] was 0.
